Data on 8 compounds can be found in patent US20160368870A1, “OLEFIN SUBSTITUTED OXINDOLES HAVING AMPK ACTIVITY” (BOEHRINGER INGELHEIM INTERNATIONAL GMBH, priority 2013, published 2016).

The target of one data set is T1, AMPK beta 1 (Homo sapiens, UniProt Q13131+Q9Y478).
T1 construct: in-cell-ELISA for phospho-ACC (Acetyl-CoA carboxylase 1) in HepG2 cells (liver); endogenous in cells; host or cells: HepG2
The data set can be described thus: in-cell-ELISA for phospho-ACC, Activity beta 1. It counts as cell-based. As to conditions: 2 h, serum free DMEM, percentage activation over vehicle control, cell line not given (HepG2 or C2C12 myotubes). Here is the method: (§1) Activation of AMPK by various compounds were measured using in-cell-ELISA for phospho-ACC (Acetyl-CoA carboxylase 1) in HepG2 cells (liver) and fully differentiated myotubes (C2C12 cells) grown in 96 well plate. Cells were treated with 1 μM of the molecule for 2 h in serum free DMEM media. After methanol fixation, cells were blocked with BSA followed by addition of anti-phospho ACC antibody (Cell Signaling) and HRP conjugated secondary antibody. Absorbance values taken at 450 nm and were normalized with total DNA (Hoechest stain). Results were expressed as percentage activation over vehicle control.

The next data set has as its target T2, AMPK beta 2 (Mus musculus, UniProt Q6PAM0+Q8BRK8).
T2 construct: fully differentiated myotubes (C2C12 cells) grown in 96 well plate; endogenous in cells; host or cells: C2C12 myotubes
Put plainly: in-cell-ELISA for phospho-ACC, Activity beta 2. Format: cell-based. As to conditions: 2 h, serum free DMEM, percentage activation over vehicle control, cell line not given (HepG2 or C2C12 myotubes). Here is the method: as §1

Data set [1] in a line: solubility of sodium salt in water. Format: physicochemical. As to conditions: read-out: soluble in water. The procedure: To a stirred solution of acid (compound 67, 1 mmol) in EtOH (25v) was added 0.5M NaOH solution (1 mmol) drop-wise at 30° C. followed by 10V of water. After 30 minutes, excess of ethanol was removed under reduced pressure at 35 deg C. and repeatedly distilled with ethanol two or three times until free solid obtained. The solid was further washed with n-Hexane to obtain compound 67 Compound 67 is soluble in 1 mg/mL water.
The protocol for synthesizing compound 67 was followed to prepare compound 68. Compound 68 is also soluble in 1 mg/mL water.

SMILES strings stand for the structures.

T1 sequence (Q9Y478 whole entry): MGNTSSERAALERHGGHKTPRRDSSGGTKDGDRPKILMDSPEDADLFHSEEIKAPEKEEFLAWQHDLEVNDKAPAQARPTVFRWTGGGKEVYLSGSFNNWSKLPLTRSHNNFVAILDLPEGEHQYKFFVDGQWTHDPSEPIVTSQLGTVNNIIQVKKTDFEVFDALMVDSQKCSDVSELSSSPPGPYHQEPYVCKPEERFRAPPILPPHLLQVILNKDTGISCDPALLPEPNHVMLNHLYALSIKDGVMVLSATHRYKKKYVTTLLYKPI
T1 sequence (Q13131 whole entry): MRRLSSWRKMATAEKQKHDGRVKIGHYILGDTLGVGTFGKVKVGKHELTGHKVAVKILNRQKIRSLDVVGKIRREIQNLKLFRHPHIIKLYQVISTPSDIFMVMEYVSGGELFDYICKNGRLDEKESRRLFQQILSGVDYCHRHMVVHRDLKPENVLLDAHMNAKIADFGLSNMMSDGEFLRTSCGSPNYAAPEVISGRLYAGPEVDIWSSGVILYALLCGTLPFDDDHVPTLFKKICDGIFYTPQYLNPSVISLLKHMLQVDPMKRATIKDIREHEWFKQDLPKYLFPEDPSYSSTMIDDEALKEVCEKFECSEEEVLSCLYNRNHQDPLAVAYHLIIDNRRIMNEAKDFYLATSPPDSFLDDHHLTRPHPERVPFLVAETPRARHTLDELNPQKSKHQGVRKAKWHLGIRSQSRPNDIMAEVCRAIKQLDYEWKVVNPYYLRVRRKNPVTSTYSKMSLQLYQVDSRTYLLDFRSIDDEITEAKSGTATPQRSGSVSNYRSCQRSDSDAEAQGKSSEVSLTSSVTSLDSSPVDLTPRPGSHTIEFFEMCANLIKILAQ
T1 sequence (P54619 whole entry partner): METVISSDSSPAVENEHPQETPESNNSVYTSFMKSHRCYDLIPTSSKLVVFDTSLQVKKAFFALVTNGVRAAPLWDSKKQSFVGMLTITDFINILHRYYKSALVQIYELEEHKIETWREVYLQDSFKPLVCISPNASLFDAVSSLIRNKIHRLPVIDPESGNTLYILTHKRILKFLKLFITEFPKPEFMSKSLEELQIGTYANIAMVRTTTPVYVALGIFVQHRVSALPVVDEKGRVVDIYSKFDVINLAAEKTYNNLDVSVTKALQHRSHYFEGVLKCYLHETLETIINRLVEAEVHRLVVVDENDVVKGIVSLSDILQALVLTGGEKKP
T2 sequence (Q6PAM0 whole entry): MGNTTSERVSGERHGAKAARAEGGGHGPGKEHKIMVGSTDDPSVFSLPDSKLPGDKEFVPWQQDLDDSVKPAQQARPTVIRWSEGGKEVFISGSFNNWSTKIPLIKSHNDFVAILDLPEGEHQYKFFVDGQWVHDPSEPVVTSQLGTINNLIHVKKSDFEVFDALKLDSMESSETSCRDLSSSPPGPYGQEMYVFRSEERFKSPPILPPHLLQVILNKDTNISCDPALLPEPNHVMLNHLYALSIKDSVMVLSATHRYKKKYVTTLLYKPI
T2 sequence (Q8BRK8 whole entry): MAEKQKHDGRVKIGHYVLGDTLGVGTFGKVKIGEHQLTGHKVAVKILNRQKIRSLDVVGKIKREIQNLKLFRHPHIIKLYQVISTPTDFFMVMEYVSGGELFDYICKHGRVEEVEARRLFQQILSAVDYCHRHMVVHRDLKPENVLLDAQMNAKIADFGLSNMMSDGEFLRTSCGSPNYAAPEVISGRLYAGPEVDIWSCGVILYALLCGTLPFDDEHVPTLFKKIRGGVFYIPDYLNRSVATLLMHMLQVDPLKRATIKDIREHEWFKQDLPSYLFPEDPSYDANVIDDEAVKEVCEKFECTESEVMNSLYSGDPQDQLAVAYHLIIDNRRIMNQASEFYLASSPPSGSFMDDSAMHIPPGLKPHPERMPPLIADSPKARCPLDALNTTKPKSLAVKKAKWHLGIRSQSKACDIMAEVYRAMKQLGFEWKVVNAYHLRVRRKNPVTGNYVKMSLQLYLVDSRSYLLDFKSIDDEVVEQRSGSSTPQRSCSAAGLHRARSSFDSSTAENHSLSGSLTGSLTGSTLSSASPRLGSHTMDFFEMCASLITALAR
T2 sequence (O54950 whole entry partner): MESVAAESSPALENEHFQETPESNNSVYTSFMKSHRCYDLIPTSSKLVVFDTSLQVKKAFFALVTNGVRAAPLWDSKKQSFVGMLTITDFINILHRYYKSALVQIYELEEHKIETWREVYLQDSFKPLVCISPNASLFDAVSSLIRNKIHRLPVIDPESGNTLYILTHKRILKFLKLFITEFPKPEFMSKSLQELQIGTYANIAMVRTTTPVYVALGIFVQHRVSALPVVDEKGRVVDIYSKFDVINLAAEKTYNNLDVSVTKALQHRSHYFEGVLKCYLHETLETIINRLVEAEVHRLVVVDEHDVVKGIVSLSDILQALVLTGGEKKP

Take `COc1ccc(C=C2C(=O)Nc3cc(Cl)c(-c4ccc(-c5ccccc5O)cc4)cc32)cc1CC(=O)O` [Example 11]: at AMPK beta 1, the activation at 1 µM was > 40%. Moreover, the “Activity beta 2 (at 1 uM)” value on AMPK beta 2 is listed as “*** (*** >40)”.

Take `Cn1cc(C=C2C(=O)Nc3cc(Cl)c(-c4ccc(-c5ccccc5O)cc4)cc32)cc1C(=O)O` [Example 13]: the activation at 1 µM on AMPK beta 1 was > 40%. The “Activity beta 2 (at 1 uM)” value at AMPK beta 2 is “*** (*** >40)”.

Regarding `Cc1ccc(C=C2C(=O)Nc3cc(Cl)c(-c4ccc(-c5ccc(S(C)(=O)=O)cc5)cc4)cc32)cc1CC(=O)O` [Example 48], the activation at 1 µM at AMPK beta 1 was > 40%. Further, on AMPK beta 2, the “Activity beta 2 (at 1 uM)” value is reported as “*** (*** >40)”.

In the case of `COc1ccc(C=C2C(=O)Nc3cc(Cl)c(-c4ccc(-c5ccc(-n6cncn6)cc5)cc4)cc32)cc1CC(=O)O` [Example 51], the activation at 1 µM at AMPK beta 1 is > 40%. Also, the “Activity beta 2 (at 1 uM)” value on AMPK beta 2 was “*** (*** >40)”.

`O=C(O)Cc1ccc(C=C2C(=O)Nc3cc(Cl)c(-c4ccc(-c5ccc(-n6cncn6)cc5)cc4)cc32)cc1` [Example 53]: the activation at 1 µM at AMPK beta 1 is > 40%. In addition, the “Activity beta 2 (at 1 uM)” value on AMPK beta 2 was “*** (*** >40)”.

In the case of `COc1ccc(C=C2C(=O)Nc3cc(Cl)c(-c4ccc(-c5ccc(-n6ccnn6)cc5)cc4)cc32)cc1CC(=O)O` [Example 56], at AMPK beta 1, the activation at 1 µM was > 40%. For the same compound, the “Activity beta 2 (at 1 uM)” value at AMPK beta 2 is given as “*** (*** >40)”.

As to `COc1ccc(/C=C2\C(=O)Nc3cc(Cl)c(-c4ccc(-c5ccc(-n6cncn6)cc5)cc4)cc32)cc1CC(=O)[O-].[Na+]` [Example 67, sodium {5-[(E/Z)-{6-chloro-2-oxo-5-[4′-(1H-1,2,4-triazol-1-yl)biphenyl-4-yl]-1,2-dihydro-3H-indol-3-ylidene}methyl]-2-methoxyphenyl}acetate], the activation at 1 µM at AMPK beta 1 was > 40%. Besides, the solubility in data set [1] was ≥ 1000 µg/mL.

Regarding `O=C(O)Cc1ccc(/C=C2\C(=O)Nc3cc(Cl)c(-c4ccc(-c5ccc(-n6cncn6)cc5)cc4)cc32)cc1` [Example 68, sodium {4-[(E/Z)-{6-chloro-2-oxo-5-[4′-(1H-1,2,4-triazol-1-yl)biphenyl-4-yl]-1,2-dihydro-3H-indol-3-ylidene}methyl]phenyl}acetate], the activation at 1 µM at AMPK beta 1 was > 40%. Also, in data set [1], the solubility was ≥ 1000 µg/mL.
